Measurements taken from patent US20170106058A1, “PHARMACEUTICAL COMPOSITION AGAINST CHRONIC BACTERIAL INFECTIONS” (Lysando AG, priority 2014, published 2017).

Tests used:
[1] = test system: P. aeruginosa PA14 persisters; assay: Persister killing assay, isolated persister fraction of P. aeruginosa PA14; assay type: cell-based
Experimental: (§1) Persister killing—Planktonic persister cells were isolated from a stationary phase culture as described e.g. in Chen et al., 2011(Chen X, Zhang M, Zhou C, Kallenbach N R, Ren D. 2011. Control of bacterial persister cells by Trp/Arg-containing antimicrobial peptides. Appl Environ Microbiol 77:4878-4885.). Briefly, an overnight culture of P. aeruginosa PA14 and PA1255 (a cystic fibrosis isolate) was inoculated each in 50 ml 1:20 Trypticase Soy Broth (TSB). After 48 h of growth at 37° C., the culture was treated with ofloxacin at a final concentration of 10 μg/ml (5× MIC) for 5 hours at 37° C., while shaking at 200 rpm. The persister cells surviving this antibiotic treatment were isolated by centrifugation (5250 g, 15 min, 4° C.) and the cell pellet was washed twice with 20 mM HEPES buffer. Prior to treatment, cells were resuspended in the same volume of 20 mM HEPES buffer. A persister killing assay was performed as described e.g. by De Groote et al., 2009 (De Groote V N, Verstraeten N, Fauvart M, Kint C I, Verbeeck A M, Beullens S, Cornelis P, Michiels J. 2009. Novel persistence genes in Pseudomonas aeruginosa identified by high-throughput screening. FEMS Microbiol Lett 297:73-79). Briefly, a volume of 100 μl of the isolated persister fraction was mixed with polypeptides comprising peptidoglycan hydrolase or ciprofloxacin (final concentrations of 10× or 30× MIC against the respective strains), in the absence or presence of 0.5 mM EDTA-Na2 (final concentration) up to a final volume of 200 μl. Control treatments with 20 mM HEPES buffer, 0.5 mM EDTA or ofloxacin (30×and 10× MIC) were performed in parallel. The mixtures were shaken (200 rpm) for lh at 37° C. Treated persisters where washed twice with 20 mM HEPES buffer and appropriate dilutions were plated on TSB agar plates and incubated at 37° C. The number of persisters was determined after 72 h incubation to allow complete resuscitation of all surviving persisters. Each experiment was independently repeated at least 3 times.
(§2) Planktonic persister cells were isolated from a stationary-phase culture as described previously (Liebens V, Defraine V, Van der Leyden A, De Groote V N, Fierro C, Beullens S, Verstraeten N, Kint C, Jans A, Frangipani E, Visa P, Marchal K, Versées W, Fauvart M, Michiels J. 2014. A putative de-N-acetylase of the PIG-L superfamily affects fluoroquinolone tolerance in Pseudomonas aeruginosa. Pathogen. Dis. 71:39-54.) with minor modifications. An overnight culture of P. aeruginosa PA14, PAl255 (a cystic fibrosis isolate), Escherichia coil UTI-89 (isolate from chronic urinary tract infection) and Acinetobacter baumannii RUH134 (reference strain for global clone 2) was diluted 100×in 50 ml 1:20 Trypticase soy broth (TSB). After overnight growth at 37° C., the cultures were treated with either 10 μg/ml ofloxacin (P. aeruginosa strains), 200 μg/ml tobramycin (A. baumannii) or 200 μg/ml amikacin (E. coli) for 5 h at 37° C., while shaking at 200 rpm. The antibiotic concentrations were chosen to allow only persister cells to survive, based on previous time-kill curves. The persister fractions were isolated by centrifugation (5,250× g for 15 min at 4° C.), and the cell pellet was washed twice with 20 mM HEPES (pH 7.4). Prior to treatment, the cells were resuspended in a ten-fold reduced volume of 20 mM HEPES (pH 7.4) to concentrate the persisters.
A persister killing assay was performed as described previously (Liebens et al., 2014), with minor modifications. […]

[2] = test system: P. aeruginosa PAl255 persisters; assay: Persister killing assay, isolated persister fraction of P. aeruginosa PAl255 (cystic fibrosis isolate); assay type: cell-based
Experimental: as §1, with “Briefly, a volume of 100 μl of the isolated persister fraction was mixed with polypeptides comprising peptidoglycan hydrolase or ciprofloxacin (final concentrations of 10× or 30× MIC against the respective strains), in the absence or presence of 0.5 mM EDTA-Na2 (final concentration) up to a final volume of 200 μl. Control treatments with 20 mM HEPES buffer, 0.5 mM EDTA or ofloxacin (30×and 10× MIC) were performed in parallel. The mixtures were shaken (200 rpm) for lh at 37° C. Treated persisters where washed twice with 20 mM HEPES buffer and appropriate dilutions were plated on TSB agar plates and incubated at 37° C.” left out, “Each experiment was independently repeated at least 3 times.” left out

[3] = test system: E. coli UTI-89 persisters; assay: Persister killing assay, isolated persister fraction of E. coli UTI-89 (chronic urinary tract infection isolate); assay type: cell-based, Escherichia coli; settings: 10× MIC
Text: as §2
A persister killing assay was performed as described previously (Liebens et al., 2014), with minor modifications. A volume of 100 μl of the isolated persister fraction was mixed with either the polypeptide according to SEQ ID NO: 124, 125, 126 or ciprofloxacin (final concentrations of 10× or 30× MIC against the respective strains), in the absence or presence of 0.5 mM EDTA-Na2 (final concentration) up to a final volume of 200 μl. Control treatments with 20 mM HEPES (pH 7.4), 0.5 mM EDTA, or ofloxacin/tobramycin/amikacin (30× and 10× MIC) were performed in parallel. […] The number of persisters was determined after 72 h of incubation to allow for complete resuscitation of all surviving persisters.

[4] = 10× and 30× MIC, with and without 0.5 mM EDTA

## O=C([O-])CN(CCN(CC(=O)[O-])CC(=O)O)CC(=O)O.[Na+].[Na+] [EDTA, reference compound]
[1]; 0.5 mM EDTA alone
  bactericidal activity against isolated persisters: did not affect the persisters
[2]; 0.5 mM EDTA alone
  bactericidal activity against isolated persisters: did not affect the persisters

## O=C(O)c1cn(C2CC2)c2cc(N3CCNCC3)c(F)cc2c1=O [ciprofloxacin, reference compound]
[1]; [4]
  bactericidal activity against isolated persisters: did not affect the persisters
[2]; [4]
  bactericidal activity against isolated persisters: did not affect the persisters
[3]; with and without 0.5 mM EDTA
  killing of persisters: did not completely kill persisters

B1: SEQ ID NO: 124: polypeptide comprising a fusion of Sarcotoxin IA (SEQ ID NO: 48) and KZ144 (SEQ ID NO: 11), active against vegetative cells of E. coli (protein)
chain: MKFFRKLKKSVKKRAKEFFKKPRVIGVSIPFGSKVLRKGDRGDEVCQLQTLLNLCGYDVGKPDGIFGNNTFNQVVKFQKDNCLDSDGIVGKNTWAELFSKYSPPIPYKTIPMPTANKSRAAATPVMNAVENATGVRSQLLLTFASIESAFDYEIKAKTSSATGWFQFLTGTWKTMIENYGMKYGVLTDPTGALRKDPRISALMGAELIKENMNILRPVLKREPTDTDLYLAHFFGPGAARRFLTTGQNELAATHFPKEAQANPSIFYNKDGSPKTIQEVYNLMDGKVAAHRKLEHHHHHH
modifications: SarcotoxinIA-KZ144his
[1]; 30× MIC, with 0.5 mM EDTA
  effect on persisters: complete eradication
  reduction of the number of persisters: approximately 5 log units
[1]; 30× MIC, without EDTA
  reduction of the number of persisters in comparison to the 0.5 mM EDTA control: approximately 2.3 log units
[3]; with 0.5 mM EDTA
  killing of persisters: completely eradicated
[3]; without 0.5 mM EDTA
  killing of persisters: did not completely kill persisters
